Assay results taken from patent US8507526B2, “4- [2- (4-methylphenylsulfanyl) phenyl] piperidine for the treatment of irritable bowel syndrome (IBS)” (H. Lundbeck A/S, priority 2007, dated 2013).

System: chronic constriction nerve injury, peripheral mononeuropathy
Test: Chronic constriction nerve injury model of neuropathic pain (Von Frey filaments, Hargreaves Plantar Device)
Format: in vivo
Settings: rats
From the text: A peripheral mononeuropathy was induced in the right hind limb of rats following a chronic constriction nerve injury, and the development of mechanical allodynia and thermal hyperalgesia was monitored using established behavioural tests (Von Frey filaments and the Hargreaves Plantar Device, respectively).

Cc1ccc(Sc2ccccc2C2CCNCC2)cc1 [Compound I, 4-[2-(4-methylphenylsulfanyl)phenyl]piperidine]
paw withdrawal threshold, Von Frey filaments (mechanical allodynia) (subcutaneous 1.9, 4.8 and 7.9 mg/kg in 10% hydroxypropyl-betacyclodextrin, right hind paw): did not increase the paw withdrawal threshold
paw withdrawal latency, thermal hyperalgesia (Hargreaves Plantar Device) (subcutaneous 4.8 and 7.9 mg/kg): significant increases in paw withdrawal latency
